Results taken from patent publication US10703748B2, “Diazanaphthalen-3-yl carboxamides and preparation and use thereof” (Samumed, LLC, priority 2017, dated 2020).

Legend:
[1] = test system: α-smooth muscle actin (aSMA) positive LL29 cells; experiment: Inhibition of the fibrotic process: αSMA staining in TGF-β1 treated LL29 fibroblasts from IPF patients; settings: Homo sapiens, Fibroblast; for EC50: 96 h; for inhibition at 10 µM: read-out: percentage in parentheses after EC50 >10
[2] = test system: secreted cytokines TNFα, IL-6 and KC-GRO; experiment: Secreted cytokines in Lipopolysaccharide-stimulated BV-2 cells (Table 9 does not say which cytokine); type: cell-based, mouse; settings: Mus musculus, BV-2, 5 h; read-out: EC50
Protocol: BV-2 cells (mouse microglial cells) were cultured in 1:1 DMEM medium supplemented with 10% FBS, and 1% penicillin/streptomycin.
BV-2 cells are plated at 35,000 cells/well in a volume of 100 μl for at least 4 hours before compounds are added. […] Compounds were added to cells overnight. […] Supernatant is removed and saved for further cytokine detection. The original plates with seeded cells were tested for cytotoxicity by measure of adenosine triphosphate (ATP) release by adding CellTiter-Glo® diluted 1:4 in distilled water (G7573, Promega) and transferring lysed cells to a completely black 96-well plate to be read with the Cytation3. Supernatant was then diluted 1:2 with a diluent from V-PLEX cytokine Kit and directly tested for the secreted cytokines TNFα, IL-6 and KC-GRO using electrochemiluminescence (Meso Scale Discovery). The standard curve for each cytokine was used to convert the electrochemiluminescent signal into pg of protein per mL.

IL-6 = IL-6 inhibition in LPS-stimulated human peripheral blood mononuclear cells (HTRF); settings: Homo sapiens, PBMC; for EC50: 22 h; for inhibition at 10 µM: read-out: percentage in parentheses after EC50 >10
[3] = test system: Wnt-responsive Sp5-Luc reporter in SW480 colon carcinoma cells; experiment: Screening assay for Wnt activity (Sp5-Luc reporter gene assay); settings: Homo sapiens; for EC50: SW480; for inhibition at 10 µM: SW480, read-out: percent inhibition at 10 μM
GSK3β kinase = GSK3β kinase (Homo sapiens, UniProt P49841); experiment: GSK3β kinase activity (Ser/Thr 09 peptide Z-lyte FRET assay); type: biochemical; settings: recombinant kinase, 46 μM ATP, one hour at room temperature; read-out: EC50
Sequence of GSK3β kinase (P49841 whole entry): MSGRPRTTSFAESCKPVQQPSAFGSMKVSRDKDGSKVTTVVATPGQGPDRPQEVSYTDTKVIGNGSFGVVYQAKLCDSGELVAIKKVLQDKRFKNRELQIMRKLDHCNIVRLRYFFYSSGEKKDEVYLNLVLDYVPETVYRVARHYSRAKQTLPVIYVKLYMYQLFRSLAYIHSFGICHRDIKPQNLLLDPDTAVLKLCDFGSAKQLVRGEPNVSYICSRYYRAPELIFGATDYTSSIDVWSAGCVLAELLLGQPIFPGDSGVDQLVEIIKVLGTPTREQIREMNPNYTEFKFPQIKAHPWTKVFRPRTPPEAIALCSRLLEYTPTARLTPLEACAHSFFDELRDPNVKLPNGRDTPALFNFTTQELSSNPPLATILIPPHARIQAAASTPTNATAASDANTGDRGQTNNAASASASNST

[4] = test system: SW480 colon carcinoma cells; experiment: Cell viability assay (CellTiter-Glo); settings: Homo sapiens; for EC50: SW480, 96 h; for inhibition at 10 µM: SW480, read-out: percent inhibition at 10 μM
DYRK1A kinase = DYRK1A kinase (Homo sapiens, UniProt Q13627); experiment: DYRK1A kinase activity (Ser/Thr 18 peptide Z-lyte FRET assay); type: biochemical; settings: recombinant DYRK1A, 30 μM ATP, one hour at room temperature;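 note: kinase activity read as coumarin/fluorescein emission ratio after development step, with unphosphorylated and phosphorylated peptide forms setting 0% and 100% controls, values from dose-response curves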
Protocol: Representative compounds were screened using the assay procedure for DYRK1A kinase activity as described below.
Each compound was dissolved in DMSO as a 10 mM stock and used to prepare compound source plates.
This is a non-radioactive assay using fluorescence resonance energy transfer (FRET) between coumarin and fluorescein to detect kinase activity which is represented as a ratio of coumarin emission/fluorescein emission.
The mixture was allowed to incubate with the representative compounds for one hour at room temperature. All reactions were performed in duplicate. Unphosphorylated (“0% Control”) and phosphorylated (“100% control”) forms of Ser/Thr 18 served as control reactions. Additionally, an 11-point dose-response curve of Staurosporine (1 uM top) was run to serve as a positive compound control.
After incubation, Development Reagent A was diluted in Development Buffer then added to the reaction and allowed to further incubate for one hour at room temperature.
Dose-response curves were generated and inhibitory concentration (IC50) values were calculated using non-linear regression curve fit in the Dotmatics' Studies Software (Bishops Stortford, UK).

SMILES	EC50 [1]	EC50 [2]	EC50 (IL-6)	inhibition at 10 µM (IL-6)	EC50 [3]	inhibition at 10 µM [3]	EC50 (GSK3β kinase)	EC50 [4]	EC50 (DYRK1A kinase)	inhibition at 10 µM [1]	inhibition at 10 µM [4]
CN1CCN(c2ccc(C(=O)Nc3cc4cc(-c5cnn(C)c5)cnc4cn3)cn2)CC1 [Compound 2871, N-(3-(1-Methyl-1H-pyrazol-4-yl)-1,7-naphthyridin-6-yl)-6-(4-methylpiperazin-1-yl)nicotinamide]	9770 nM	1700 nM	> 10000 nM	0%	> 10000 nM	24.5%	> 10000 nM	4680 nM	16 nM	–	–
Cn1cc(-c2cnc3cnc(NC(=O)CCc4ccccc4)cc3c2)cn1 [Compound 2914, N-(3-(1-Methyl-1H-pyrazol-4-yl)-1,7-naphthyridin-6-yl)-3-phenylpropanamide]	893 nM	131 nM	> 10000 nM	5%	751 nM	–	453 nM	692 nM	28 nM	–	–
Cn1cc(-c2cnc3cnc(NC(=O)c4ccc5ccoc5c4)cc3c2)cn1 [Compound 2929, N-(3-(1-Methyl-1H-pyrazol-4-yl)-1,7-naphthyridin-6-yl)benzofuran-6-carboxamide]	2250 nM	234 nM	> 10000 nM	4.5%	835 nM	–	> 10000 nM	1060 nM	17 nM	–	–
CN1CCC(n2cc(C(=O)Nc3cc4cc(-c5cnn(C)c5)cnc4cn3)cn2)CC1 [Compound 2949, N-(3-(1-Methyl-1H-pyrazol-4-yl)-1,7-naphthyridin-6-yl)-1-(1-methylpiperidin-4-yl)-1H-pyrazole-4-carboxamide]	5150 nM	454 nM	9150 nM	–	59 nM	–	> 10000 nM	440 nM	24 nM	–	–
CC(C)OC(=O)N1CCC(n2cc(C(=O)Nc3cc4cc(-c5cnn(C)c5)cnc4cn3)cn2)CC1 [Compound 2954, Isopropyl 4-(4-((3-(1-methyl-1H-pyrazol-4-yl)-1,7-naphthyridin-6-yl)carbamoyl)-1H-pyrazol-1-yl)piperidine-1-carboxylate]	3340 nM	491 nM	> 10000 nM	45%	915 nM	–	> 10000 nM	1500 nM	28 nM	–	–
CN1CCN(c2cc(C(=O)Nc3cc4cc(-c5cnn(C)c5N)cnc4cn3)ccn2)CC1 [Compound 3024, N-(3-(5-Amino-1-methyl-1H-pyrazol-4-yl)-1,7-naphthyridin-6-yl)-2-(4-methylpiperazin-1-yl)isonicotinamide]	> 10000 nM	1200 nM	> 10000 nM	11.1%	2610 nM	–	> 10000 nM	3370 nM	17 nM	50%	–
CN1CCC2(CC1)CN(c1cc(C(=O)Nc3cc4cc(-c5cnn(C)c5CN5CCCCC5)cnc4cn3)ccn1)C2 [Compound 3032, N-(3-(1-Methyl-5-(piperidin-1-ylmethyl)-1H-pyrazol-4-yl)-1,7-naphthyridin-6-yl)-2-(7-methyl-2,7-diazaspiro[3.5]nonan-2-yl)isonicotinamide]	1580 nM	127 nM	1650 nM	–	607 nM	–	> 10000 nM	599 nM	8 nM	–	–
Cn1cc(-c2cnc3cnc(NC(=O)C4CCN(CC5(C(F)(F)F)CC5)CC4)cc3c2)nn1 [Compound 3067, N-(3-(1-Methyl-1H-1,2,3-triazol-4-yl)-1,7-naphthyridin-6-yl)-1-((1-(trifluoromethyl)cyclopropyl)methyl)piperidine-4-carboxamide]	> 10000 nM	3900 nM	> 10000 nM	0%	4500 nM	–	836 nM	> 10000 nM	58 nM	31.7%	42.2%
Cn1cncc1-c1cnc2cnc(NC(=O)c3ccc(F)cc3)cc2c1 [Compound 3168, 4-Fluoro-N-(3-(1-methyl-1H-imidazol-5-yl)-1,7-naphthyridin-6-yl) benzamide]	> 10000 nM	2600 nM	> 10000 nM	0%	> 10000 nM	17.3%	> 10000 nM	> 10000 nM	8 nM	10.2%	25.8%
Cn1cncc1-c1cnc2cnc(NC(=O)c3ccc4c(c3)CNC4)cc2c1 [Compound 3194, N-(3-(1-Methyl-1H-imidazol-5-yl)-1,7-naphthyridin-6-yl)isoindoline-5-carboxamide]	> 10000 nM	≥ 10000 nM	> 10000 nM	8.9%	4780 nM	–	> 10000 nM	4070 nM	6 nM	47.3%	–
CC(F)(F)CN1CCC(C(=O)Nc2cc3cc(-c4cnco4)cnc3cn2)CC1 [Compound 3257, 1-(2,2-Difluoropropyl)-N-(3-(oxazol-5-yl)-1,7-naphthyridin-6-yl)piperidine-4-carboxamide]	> 10000 nM	458 nM	> 10000 nM	3.2%	> 10000 nM	12.9%	5300 nM	> 10000 nM	16 nM	36%	15%
Cn1cncc1-c1cnc2cnc(NC(=O)c3cccc(CN4CCCC4)c3)cc2c1 [Compound 3259, N-(3-(1-Methyl-1H-imidazol-5-yl)-1,7-naphthyridin-6-yl)-3-(pyrrolidin-1-ylmethyl)benzamide]	> 10000 nM	1200 nM	> 10000 nM	4.1%	3500 nM	–	> 10000 nM	1940 nM	24 nM	48.4%	–
CN1CCC(Oc2cccc(C(=O)Nc3cc4cc(-c5cnco5)cnc4cn3)c2)CC1 [Compound 3311, 3-((1-Methylpiperidin-4-yl)oxy)-N-(3-(oxazol-5-yl)-1,7-naphthyridin-6-yl) benzamide]	1440 nM	420 nM	> 10000 nM	5.8%	> 10000 nM	4.9%	> 10000 nM	> 10000 nM	7 nM	–	5.4%
CN1CCC(C(=O)Nc2cc3cc(-c4cnsc4)cnc3cn2)CC1 [Compound 3412, N-(3-(Isothiazol-4-yl)-1,7-naphthyridin-6-yl)-1-methylpiperidine-4-carboxamide]	> 10000 nM	1500 nM	> 10000 nM	2.7%	> 10000 nM	47.1%	> 10000 nM	> 10000 nM	40 nM	46.2%	41.5%
Nc1cncc(-c2cnc3cnc(NC(=O)c4ccc(OC5CCNCC5)cc4)cc3c2)c1 [Compound 3524, N-(3-(5-Aminopyridin-3-yl)-1,7-naphthyridin-6-yl)-4-(piperidin-4-yloxy) benzamide]	> 10000 nM	582 nM	> 10000 nM	5.6%	3550 nM	–	> 10000 nM	3710 nM	11 nM	50%	–
CN1CC=C(c2cc(C(=O)Nc3cc4cc(-c5cncc(NC(C)(C)C)n5)cnc4cn3)ccn2)CC1 [Compound 3587, N-(3-(6-(tert-Butylamino)pyrazin-2-yl)-1,7-naphthyridin-6-yl)-1′-methyl-1′,2′,3′,6′-tetrahydro-[2,4′-bipyridine]-4-carboxamide]	1440 nM	11 nM	7660 nM	–	357 nM	–	> 10000 nM	821 nM	1 nM	–	–
O=C(Nc1cc2cc(-c3cncc(NC4CCNCC4)n3)cnc2cn1)C1CCOCC1 [Compound 3597, N-(3-(6-(Piperidin-4-ylamino)pyrazin-2-yl)-1,7-naphthyridin-6-yl) tetrahydro-2H-pyran-4-carboxamide]	> 10000 nM	≥ 10000 nM	> 10000 nM	0%	> 10000 nM	7.6%	> 10000 nM	> 10000 nM	6 nM	7.7%	8.1%
O=C(Nc1cc2cc(-c3cncc(N[C@H]4CCNC[C@@H]4F)n3)cnc2cn1)C1CC1 [Compound 3599, N-(3-(6-(((3S,4S)-3-Fluoropiperidin-4-yl)amino)pyrazin-2-yl)-1,7-naphthyridin-6-yl)cyclopropanecarboxamide]	3010 nM	832 nM	> 10000 nM	40.1%	> 10000 nM	41.3%	780 nM	8850 nM	8 nM	–	–
CN1CCC(n2cc(C(=O)Nc3cc4cc(-c5cncc6[nH]ccc56)cnc4cn3)cn2)CC1 [Compound 3616, N-(3-(1H-Pyrrolo[2,3-c]pyridin-4-yl)-1,7-naphthyridin-6-yl)-1-(1-methylpiperidin-4-yl)-1H-pyrazole-4-carboxamide]	3160 nM	1200 nM	2370 nM	–	485 nM	–	> 10000 nM	504 nM	29 nM	–	–
